The supplement of paper PMC10307832

Experiments:
Assay in all cases: relative viability (nuclei count vs DMSO), 5 days (fraction); higher = more cells survive
LU99A = test system: LU99A
Method in brief: (§1)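 One day after seeding in 1536-well plates, lung cancer cell lines were dosed by pin tool. Dosing was either single-drug or a fixed anchor-drug dose plus five library-drug doses (not always all listed) in √10 steps. After 5 days, nuclei were stained in one fix-and-stain step and counted on 4× images, and relative viability is the nuclei count of treated wells over that of vehicle wells, given as the median of duplicate plates.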

HCC-366 = test system: HCC-366
Method in brief: as §1

PC-3 [JPC-3] = test system: PC-3 [JPC-3]
Method in brief: as §1

NCI-H2087 = test system: NCI-H2087
Method in brief: as §1

NCI-H3122 = test system: NCI-H3122
Method in brief: as §1

NCI-H1755 = test system: NCI-H1755
Method in brief: as §1

NCI-H1395 = test system: NCI-H1395
Method in brief: as §1

HCC-78 = test system: HCC-78
Method in brief: as §1

NCI-H1651 = test system: NCI-H1651
Method in brief: as §1

NCI-H2228 = test system: NCI-H2228
Method in brief: as §1

UMC-11 = test system: UMC-11
Method in brief: as §1

NCI-H460 = test system: NCI-H460
Method in brief: as §1

RERF-LC-KJ = test system: RERF-LC-KJ
Method in brief: as §1

LC-2-ad = test system: LC-2-ad
Method in brief: as §1

NCI-H1793 = test system: NCI-H1793
Method in brief: as §1

CAL-12T = test system: CAL-12T
Method in brief: as §1

ABC-1 = test system: ABC-1
Method in brief: as §1

LOU-NH91 = test system: LOU-NH91
Method in brief: as §1

NCI-H1734 = test system: NCI-H1734
Method in brief: as §1

NCI-H2170 = test system: NCI-H2170
Method in brief: as §1

NCI-H1944 = test system: NCI-H1944
Method in brief: as §1

NCI-H2405 = test system: NCI-H2405
Method in brief: as §1

## O=C(O)c1ccc(-c2c[nH]c3ncc(-c4ccccc4)cc23)cc1C1CCCC1 + Cc1nc(NC(=O)N2CCC[C@H]2C(N)=O)sc1-c1ccnc(C(C)(C)C(F)(F)F)c1 [Alpelisib] (partner 2 µM)
LU99A; first compound 0.04 µM
  relative viability: 0.597
LU99A; first compound 0.1265 µM
  relative viability: 0.615
LU99A; first compound 0.4 µM
  relative viability: 0.485
LU99A; first compound 1.265 µM
  relative viability: 0.425
HCC-366; first compound 0.04 µM
  relative viability: 0.443
HCC-366; first compound 0.1265 µM
  relative viability: 0.721
HCC-366; first compound 0.4 µM
  relative viability: 0.653
HCC-366; first compound 1.265 µM
  relative viability: 0.32
PC-3 [JPC-3]; first compound 0.04 µM
  relative viability: 1.05
PC-3 [JPC-3]; first compound 0.1265 µM
  relative viability: 1.03
PC-3 [JPC-3]; first compound 0.4 µM
  relative viability: 1.04
PC-3 [JPC-3]; first compound 1.265 µM
  relative viability: 0.89
NCI-H2087; first compound 0.04 µM
  relative viability: 1.01
NCI-H2087; first compound 0.1265 µM
  relative viability: 1.06
NCI-H2087; first compound 0.4 µM
  relative viability: 1.08
NCI-H2087; first compound 1.265 µM
  relative viability: 0.844
NCI-H3122; first compound 0.04 µM
  relative viability: 0.724
NCI-H3122; first compound 0.1265 µM
  relative viability: 0.825
NCI-H3122; first compound 0.4 µM
  relative viability: 0.752
NCI-H3122; first compound 1.265 µM
  relative viability: 0.617
NCI-H1755; first compound 0.04 µM
  relative viability: 0.952
NCI-H1755; first compound 0.1265 µM
  relative viability: 1.02
NCI-H1755; first compound 0.4 µM
  relative viability: 0.98
NCI-H1755; first compound 1.265 µM
  relative viability: 0.923
NCI-H1395; first compound 0.04 µM
  relative viability: 1.35
NCI-H1395; first compound 0.1265 µM
  relative viability: 1.01
NCI-H1395; first compound 0.4 µM
  relative viability: 1.1
NCI-H1395; first compound 1.265 µM
  relative viability: 0.769
HCC-78; first compound 0.04 µM
  relative viability: 0.397
HCC-78; first compound 0.1265 µM
  relative viability: 0.361
HCC-78; first compound 0.4 µM
  relative viability: 0.456
HCC-78; first compound 1.265 µM
  relative viability: 0.321
NCI-H1651; first compound 0.04 µM
  relative viability: 0.977
NCI-H1651; first compound 0.1265 µM
  relative viability: 1.02
NCI-H1651; first compound 0.4 µM
  relative viability: 0.613
NCI-H1651; first compound 1.265 µM
  relative viability: 0.713
NCI-H2228; first compound 0.04 µM
  relative viability: 0.755
NCI-H2228; first compound 0.1265 µM
  relative viability: 0.787
NCI-H2228; first compound 0.4 µM
  relative viability: 0.552
NCI-H2228; first compound 1.265 µM
  relative viability: 0.468
UMC-11; first compound 0.04 µM
  relative viability: 0.938
UMC-11; first compound 0.1265 µM
  relative viability: 1.06
UMC-11; first compound 0.4 µM
  relative viability: 1.02
UMC-11; first compound 1.265 µM
  relative viability: 0.929
NCI-H460; first compound 0.04 µM
  relative viability: 0.518
NCI-H460; first compound 0.1265 µM
  relative viability: 0.607
NCI-H460; first compound 0.4 µM
  relative viability: 0.483
NCI-H460; first compound 1.265 µM
  relative viability: 0.416
RERF-LC-KJ; first compound 0.04 µM
  relative viability: 0.838
RERF-LC-KJ; first compound 0.1265 µM
  relative viability: 0.762
RERF-LC-KJ; first compound 0.4 µM
  relative viability: 0.869
RERF-LC-KJ; first compound 1.265 µM
  relative viability: 0.82
LC-2-ad; first compound 0.04 µM
  relative viability: 0.86
LC-2-ad; first compound 0.1265 µM
  relative viability: 0.906
LC-2-ad; first compound 0.4 µM
  relative viability: 0.827
LC-2-ad; first compound 1.265 µM
  relative viability: 0.573
NCI-H1793; first compound 0.04 µM
  relative viability: 0.622
NCI-H1793; first compound 0.1265 µM
  relative viability: 0.706
NCI-H1793; first compound 0.4 µM
  relative viability: 0.805
NCI-H1793; first compound 1.265 µM
  relative viability: 0.754
CAL-12T; first compound 0.04 µM
  relative viability: 1.17
CAL-12T; first compound 0.1265 µM
  relative viability: 1.45
CAL-12T; first compound 0.4 µM
  relative viability: 1.2
CAL-12T; first compound 1.265 µM
  relative viability: 1.11
ABC-1; first compound 0.04 µM
  relative viability: 0.831
ABC-1; first compound 0.1265 µM
  relative viability: 1.09
ABC-1; first compound 0.4 µM
  relative viability: 1.24
ABC-1; first compound 1.265 µM
  relative viability: 1.2
LOU-NH91; first compound 0.04 µM
  relative viability: 0.756
LOU-NH91; first compound 0.1265 µM
  relative viability: 0.803
LOU-NH91; first compound 0.4 µM
  relative viability: 0.68
LOU-NH91; first compound 1.265 µM
  relative viability: 0.608
NCI-H1734; first compound 0.04 µM
  relative viability: 0.74
NCI-H1734; first compound 0.1265 µM
  relative viability: 0.683
NCI-H1734; first compound 0.4 µM
  relative viability: 0.598
NCI-H1734; first compound 1.265 µM
  relative viability: 0.664
NCI-H2170; first compound 0.04 µM
  relative viability: 0.812
NCI-H2170; first compound 0.1265 µM
  relative viability: 0.803
NCI-H2170; first compound 0.4 µM
  relative viability: 0.774
NCI-H2170; first compound 1.265 µM
  relative viability: 0.584
NCI-H1944; first compound 0.04 µM
  relative viability: 0.871
NCI-H1944; first compound 0.1265 µM
  relative viability: 0.94
NCI-H1944; first compound 0.4 µM
  relative viability: 0.833
NCI-H1944; first compound 1.265 µM
  relative viability: 0.745
NCI-H2405; first compound 0.04 µM
  relative viability: 0.925
NCI-H2405; first compound 0.1265 µM
  relative viability: 0.746
NCI-H2405; first compound 0.4 µM
  relative viability: 0.796
NCI-H2405; first compound 1.265 µM
  relative viability: 0.591
